From patent US11780830B2, “Triazolone derivatives or salts thereof and pharmaceutical compositions comprising the same” (YUHAN CORPORATION, priority 2018, dated 2023)

Experiments:
Assay type in all cases: biochemical
recombinant human VAP-1 = biological target: T1, recombinant human VAP-1 (Homo sapiens, UniProt Q16853); experiment: Activity on recombinant human VAP-1, HRP-coupled Amplex Red hydrogen peroxide assay; conditions: substrate 1 mM benzylamine; compound incubated with enzyme at 37° C. for 30 minutes; pH 7.4; read-out: Inhibitory Activity (IC50, nM) human VAP-1
T1 construct: purchased R&D systems
T1 sequence (Q16853 1-763): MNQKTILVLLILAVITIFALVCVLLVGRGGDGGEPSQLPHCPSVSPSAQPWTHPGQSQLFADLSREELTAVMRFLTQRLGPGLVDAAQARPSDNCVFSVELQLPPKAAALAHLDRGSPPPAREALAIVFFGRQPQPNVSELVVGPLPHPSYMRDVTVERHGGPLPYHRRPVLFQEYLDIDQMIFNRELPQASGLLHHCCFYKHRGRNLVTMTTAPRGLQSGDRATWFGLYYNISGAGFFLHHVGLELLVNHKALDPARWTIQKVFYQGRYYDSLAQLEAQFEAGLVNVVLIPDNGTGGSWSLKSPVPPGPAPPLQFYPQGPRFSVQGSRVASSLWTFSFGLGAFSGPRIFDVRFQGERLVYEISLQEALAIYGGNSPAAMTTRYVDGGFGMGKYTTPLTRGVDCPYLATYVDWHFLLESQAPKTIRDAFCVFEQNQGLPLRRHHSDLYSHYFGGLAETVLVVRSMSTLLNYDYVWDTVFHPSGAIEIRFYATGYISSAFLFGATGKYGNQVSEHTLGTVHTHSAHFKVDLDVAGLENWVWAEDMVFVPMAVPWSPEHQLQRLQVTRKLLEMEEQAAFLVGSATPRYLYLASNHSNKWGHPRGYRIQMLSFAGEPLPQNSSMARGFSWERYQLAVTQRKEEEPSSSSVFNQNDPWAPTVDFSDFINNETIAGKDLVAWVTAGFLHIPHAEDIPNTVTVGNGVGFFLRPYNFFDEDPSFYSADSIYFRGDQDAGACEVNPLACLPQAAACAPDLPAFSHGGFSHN
Outline: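 Enzyme in 50 mM sodium phosphate (pH 7.4) is exposed to test compound for 30 min at 37 °C. Benzylamine (1 mM) with HRP and Amplex Red then starts the reaction, and the fluorescence rate, relative to a DMSO-only control, gives IC50.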

[1] = biological target: T2, recombinant human DAO (diamine oxidase) (Homo sapiens, UniProt P19801); experiment: Activity on recombinant human DAO, method similar to the VAP-1 assay; conditions: substrate 1 mM putrescine; read-out: Inhibitory Activity (IC50, nM) DAO
T2 construct: purchased R&D systems
T2 sequence (P19801 20-751): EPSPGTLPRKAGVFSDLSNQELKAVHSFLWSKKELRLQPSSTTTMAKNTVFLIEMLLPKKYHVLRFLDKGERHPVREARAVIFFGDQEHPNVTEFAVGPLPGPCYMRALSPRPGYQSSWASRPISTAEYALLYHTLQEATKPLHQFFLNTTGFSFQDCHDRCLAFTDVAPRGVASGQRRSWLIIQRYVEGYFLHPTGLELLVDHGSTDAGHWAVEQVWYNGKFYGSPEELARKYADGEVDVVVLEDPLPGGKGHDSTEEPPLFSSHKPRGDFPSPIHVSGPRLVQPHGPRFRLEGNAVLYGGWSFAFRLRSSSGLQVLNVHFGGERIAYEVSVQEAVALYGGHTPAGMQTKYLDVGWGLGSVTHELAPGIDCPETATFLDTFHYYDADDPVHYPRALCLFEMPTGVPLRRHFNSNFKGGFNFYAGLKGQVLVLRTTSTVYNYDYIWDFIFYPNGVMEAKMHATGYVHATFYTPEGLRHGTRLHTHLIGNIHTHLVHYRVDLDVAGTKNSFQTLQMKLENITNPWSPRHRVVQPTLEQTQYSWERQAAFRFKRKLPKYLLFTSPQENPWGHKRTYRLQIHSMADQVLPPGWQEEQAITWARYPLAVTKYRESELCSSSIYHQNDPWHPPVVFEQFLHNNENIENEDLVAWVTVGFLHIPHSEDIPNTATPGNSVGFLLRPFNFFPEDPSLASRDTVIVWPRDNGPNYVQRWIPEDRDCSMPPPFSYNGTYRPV
Outline: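 Inhibition of recombinant human diamine oxidase (DAO, R&D systems) was assessed by the same approach as the VAP-1 assay, using 1 mM putrescine as substrate. Hydrogen peroxide formed was detected through an HRP-coupled Amplex Red reaction yielding fluorescent resorufin, read at 544 nm excitation and 590 nm emission. IC50 values came from four-parameter logistic fitting in GraphPad Prism.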

[2] = biological target: T3, recombinant human MAO-A (monoamine oxidase-A) (Homo sapiens, UniProt P21397); experiment: Activity on recombinant human MAO-A, method similar to the VAP-1 assay; conditions: substrate 0.5 mM tyramine; read-out: Inhibitory Activity (IC50, nM) MAO-A
T3 construct: purchased Sigma-Aldrich
T3 sequence (P21397 1-527): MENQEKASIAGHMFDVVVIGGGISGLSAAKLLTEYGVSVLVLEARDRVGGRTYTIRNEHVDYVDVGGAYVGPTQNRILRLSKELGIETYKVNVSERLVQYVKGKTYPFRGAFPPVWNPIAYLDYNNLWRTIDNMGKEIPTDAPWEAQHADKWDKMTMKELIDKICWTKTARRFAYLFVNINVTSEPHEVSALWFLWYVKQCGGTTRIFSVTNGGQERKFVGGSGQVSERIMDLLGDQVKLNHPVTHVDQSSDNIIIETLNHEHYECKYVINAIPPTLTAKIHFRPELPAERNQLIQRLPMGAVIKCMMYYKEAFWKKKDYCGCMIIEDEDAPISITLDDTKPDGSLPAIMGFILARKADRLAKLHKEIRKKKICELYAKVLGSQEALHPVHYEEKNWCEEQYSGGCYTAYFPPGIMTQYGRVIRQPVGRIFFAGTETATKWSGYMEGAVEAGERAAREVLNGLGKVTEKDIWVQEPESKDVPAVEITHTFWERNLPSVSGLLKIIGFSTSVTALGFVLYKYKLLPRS
Outline: (§1)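 Enzyme in pH 7.4 phosphate buffer; 30 min, 37° C with compound (DMSO <1%); start with 200 uM Amplex Red + 1 U/mL HRP + tyramine 0.5 mM (MAO-A) or benzylamine 1 mM (MAO-B); kinetic read ex 544/em 590, 1-2 h; % rate decrease vs DMSO control → IC50, 4-parameter fit.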

[3] = biological target: T4, recombinant human MAO-B (monoamine oxidase-B) (Homo sapiens, UniProt P27338); experiment: Activity on recombinant human MAO-B, method similar to the VAP-1 assay; conditions: substrate 1 mM benzylamine; read-out: Inhibitory Activity (IC50, nM) MAO-B
T4 construct: purchased Sigma-Aldrich
T4 sequence (P27338 1-520): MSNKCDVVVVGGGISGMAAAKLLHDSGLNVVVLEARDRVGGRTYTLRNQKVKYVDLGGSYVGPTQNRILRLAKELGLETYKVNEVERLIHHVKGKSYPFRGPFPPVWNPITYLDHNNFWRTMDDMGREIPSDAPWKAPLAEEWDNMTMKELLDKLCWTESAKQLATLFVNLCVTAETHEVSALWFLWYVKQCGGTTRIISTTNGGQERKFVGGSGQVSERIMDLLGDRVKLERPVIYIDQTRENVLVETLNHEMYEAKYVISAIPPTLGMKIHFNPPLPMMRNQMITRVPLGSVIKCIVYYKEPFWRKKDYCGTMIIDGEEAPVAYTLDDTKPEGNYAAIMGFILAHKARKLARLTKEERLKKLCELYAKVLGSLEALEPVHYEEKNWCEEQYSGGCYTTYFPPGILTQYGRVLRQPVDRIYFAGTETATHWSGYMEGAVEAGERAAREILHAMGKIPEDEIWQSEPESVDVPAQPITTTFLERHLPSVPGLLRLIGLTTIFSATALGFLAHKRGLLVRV
Outline: as §1

| Structure (SMILES) | IC50 (recombinant human VAP-1) [nM] | IC50 [1] [nM] | IC50 [2] [nM] | IC50 [3] [nM] |
| --- | --- | --- | --- | --- |
| NC/C(=C\F)Cn1ncn(CCc2ccc(-c3ccc(C(F)(F)F)nc3)s2)c1=O [Example 217, 2-[(2E)-2-(aminomethyl)-3-fluoroprop-2-en-1-yl]-4-(2-{5-[6-(trifluoromethyl)pyridin-3-yl]thiophen-2-yl}ethyl)-2,4-dihydro-3H-1,2,4-triazol-3-one] | 0.7 | 61 | > 100000 | 6900 |
| Cc1cc(-c2ccc(CCn3cnn(C/C(=C/F)CN)c3=O)s2)cc2c1NC(=O)CC2 [Example 218, 6-[5-(2-{1-[(2E)-2-(aminomethyl)-3-fluoroprop-2-en-1-yl]-5-oxo-1,5-dihydro-4H-1,2,4-triazol-4-yl}ethyl)thiophen-2-yl]-8-methyl-3,4-dihydroquinolin-2(1H)-one] | 0.7 | 200 | > 100000 | 76000 |
| CN1C(=O)CCc2cc(-c3ccc(CCn4cnn(C/C(=C/F)CN)c4=O)s3)ccc21 [Example 219, 6-[5-(2-{1-[(2E)-2-(aminomethyl)-3-fluoroprop-2-en-1-yl]-5-oxo-1,5-dihydro-4H-1,2,4-triazol-4-yl}ethyl)thiophen-2-yl]-1-methyl-3,4-dihydroquinolin-2(1H)-one] | 0.5 | 120 | > 100000 | 38000 |

More lines, in order of falling IC50 (recombinant human VAP-1), values ahead:

| IC50 (recombinant human VAP-1) [nM] | IC50 [1] [nM] | IC50 [2] [nM] | IC50 [3] [nM] | Structure (SMILES) |
| --- | --- | --- | --- | --- |
| 1.8 | 1420 | > 100000 | > 100000 | NC/C(=C\F)Cn1ncn(CCc2ccc(-c3ccc(N4CCNCC4)cc3)s2)c1=O [Example 221, 2-[(2E)-2-(aminomethyl)-3-fluoroprop-2-en-1-yl]-4-(2-{5-[4-(piperazin-1-yl)phenyl]thiophen-2-yl}ethyl)-2,4-dihydro-3H-1,2,4-triazol-3-one] |
| 0.7 | 520 | > 100000 | 25000 | CN(C)c1ccc(-c2ccc(CCn3cnn(C/C(=C/F)CN)c3=O)s2)cn1 [Example 220, 2-[(2E)-2-(aminomethyl)-3-fluoroprop-2-en-1-yl]-4-(2-{5-[6-(dimethylamino)pyridin-3-yl]thiophen-2-yl}ethyl)-2,4-dihydro-3H-1,2,4-triazol-3-one] |
| 0.7 | 890 | > 100000 | 38000 | CCn1cc(-c2ccc(CCn3cnn(C/C(=C/F)CN)c3=O)s2)cn1 [Example 222, 2-[(2E)-2-(aminomethyl)-3-fluoroprop-2-en-1-yl]-4-{2-[5-(1-ethyl-1H-pyrazol-4-yl)thiophen-2-yl]ethyl}-2,4-dihydro-3H-1,2,4-triazol-3-one] |
| 0.5 | 68 | > 100000 | 37000 | CS(=O)(=O)c1ccc(-c2ccc(CCn3cnn(C/C(=C/F)CN)c3=O)s2)cc1 [Example 216, 2-[(2E)-2-(aminomethyl)-3-fluoroprop-2-en-1-yl]-4-(2-{5-[4-(methylsulfonyl)phenyl]thiophen-2-yl}ethyl)-2,4-dihydro-3H-1,2,4-triazol-3-one] |
